# According to a melting point compilation (Tetko et al.; mined from patent text by program, amines drawn as free bases though some values may be those of a salt):
row,melting point [°C],SMILES
1,161 to 162,Cc1cccc(-c2ccnc3c(C#N)cnn23)c1
2,65 to 70,CCCC(=O)Oc1cc([N+](=O)[O-])cc([N+](=O)[O-])c1O
3,91 to 94,Cc1ccc(Cc2cnc(NCCCNc3ncccc3Cl)[nH]c2=O)cn1
4,79 to 81,COCCNC(=O)c1ccc(Br)c(C)c1
5,128 to 131,O=c1cc(C(F)(F)F)nc(Cl)n1-c1cc(Oc2ccccc2[N+](=O)[O-])c(Cl)cc1F
6,161 to 163,CCOC(=O)/C(F)=C/c1ccc(N2C[C@H](CNC(C)=O)OC2=O)cc1
7,44 to 45,N#CC1=Cc2ccccc2OC1
8,240,CCNC(=O)Nc1cnc2ccc(Cl)nc2n1
9,104,COc1ccc(C2COc3cc(OC(C)=O)c(OC(C)=O)cc3C2)cc1 (centres undefined)
10,174,Cc1cc2c(cc1O)OC[C@@H](N1CCC(O)(c3ccc(F)cc3)CC1)[C@H]2O (relative stereo)
11,170 to 172,CN1CCN(c2ccc([N+](=O)[O-])c(CS(=O)(=O)c3ccccc3)n2)CC1
12,68 to 71.5,OCc1nc(-c2ccc(Cl)cc2)co1
13,199 to 201,NC(=NCC(F)(F)F)Nc1ccnc(CSCCNc2nc(N)n[nH]2)n1
14,> 200,COC(=O)CCNC(=O)c1ccc2c(c1)nc(-c1ccc(C(=N)N)cc1)n2CCC(c1ccccc1)c1ccccc1
15,205 to 207,NS(=O)(=O)CS(=O)c1ccc(Cl)c(Cl)c1 (centres undefined)
16,166,CC(=O)Nc1ccc(SC(CCc2ccc(Cl)cc2)Cn2ccnc2)cc1 (centres undefined)
17,62 to 65,COc1ccc(CCCNc2c(C)c(C)c3c(c2C)C(c2ccc(C(C)C)cc2)C(C)(C)O3)cc1 (centres undefined)
18,81.5 to 82.5,CC(O)c1ccc(C2CCCCC2)cc1 (centres undefined)
19,104,CC(=O)OC1CC2=CCC3C4CCC(C(C)CS(=O)(=O)c5ccccc5)C4(C)CCC3C2(C)C(OC(C)=O)C1 (centres undefined)
20,126 to 127,Nc1nc2ccccc2c2c1ncn2CCOCCCc1ncccn1
21,178 to 180,Cc1c(NCCN2C(=O)c3ccccc3C2=O)c(=O)n(C)c(=O)n1C
22,97 to 99,O=C1c2cc([N+](=O)[O-])ccc2OCN1CCO[N+](=O)[O-]
23,97 to 99,O=C1NCC(c2ccccc2)N1CCCS (centres undefined)
24,142 to 143,COc1ccc2c(c1)c1c(n2Cc2ccccc2)CCCC1C(=O)N1CCN(c2ccccc2)CC1 (centres undefined)

row,melting point [°C],SMILES
1,240 to 242,CC(=O)Nc1ccc(Cn2cnc3c(Cl)ncnc32)cc1
2,232,O=C1NC(=Cc2c(Cl)cccc2Cl)C(=O)C1=NO
3,121 to 122,c1ccc(Cn2c3ccccc3c3ccccc32)cc1
4,76 to 77,O=[N+]([O-])c1ccc(OCC(F)(F)F)c([N+](=O)[O-])c1
5,78 to 80,N#CCN1CCC(OC(c2ccccc2)c2ccccc2)CC1
6,> 310,COc1ccc(Nc2nc(O)nc(NC3CCCCCC3)n2)cc1Cl
7,179 to 180,COC(=O)c1cc(O)c2ccc(OCc3ccccc3)cc2c1
8,90,COc1cc2c(cc1OC)C(O)(c1ccccn1)CC(C)(C)CO2 (centres undefined)
9,198 to 199,O=C(NNc1ccc(NC(=S)Nc2ccccc2)cc1)c1ccc(Cl)cc1
10,120,CC(C)C(=O)Nc1ccoc1
11,73 to 75,CC(C)n1c(=O)nc(-c2ccc3c(c2)CCC3)c2cc3c(cc21)OCO3
12,162 to 165,Cc1nc(NC(=O)c2cccc(F)c2)sc1C(=O)NCc1ccccc1
13,182 to 185,Cc1cccc(C(=O)c2[nH]c3cc(Cl)ccc3c2NC(=O)CC(C)C)c1
14,322 to 324,Cc1cc2c(=O)[nH][nH]c(=O)c2n1Cc1ccccc1
15,206 to 208,COc1ccc(-c2ccc3c(c2)c2ccc(-c4ccc(OC)cc4)nc2n3S(=O)(=O)c2ccccc2)cc1
16,146 to 147,COc1cccc(-c2cc(O)c(SCc3ccccc3)c(=O)o2)c1
17,122 to 127,Oc1ccc(-c2nnc(CSCCCOc3ccccc3)o2)cc1
18,222,C=CCOC1=NC2OC(C(=O)c3ccc(Cl)cc3Cl)=C(NC(N)=O)C2C=C1 (centres undefined)
19,122 to 124,Cc1nc2cc(Br)cc(Br)c2o1
20,180 to 183,CNC(=O)c1cc2c(OC[C@@H](O)CN3CCC(c4ccc5ccccc5c4)CC3)cccc2n1C
21,144,CN(C)c1ccc2c(c1)SC1=NCCN12
22,> 300,CC1(C)CCC(C)(C)c2nc(C(=O)CBr)cnc21
23,206 to 208,O=C(O)c1ccc(NCc2ccc(OCc3ccccc3)cc2)cc1
24,127 to 128,O=C(C1=Cc2ccccc2Oc2ccccc21)N1CCCCC1

row,melting point [°C],SMILES
1,118 to 119,CSc1ncccc1NC(=O)CCCCCSc1nc2ccccc2s1
2,192 to 194,CC(=O)Oc1cccc2c1C(=O)c1c(OC(C)=O)cc(C(=O)NOCc3ccccc3)cc1C2=O
3,218 to 220,COc1ccc(-c2cc3nc(N4CCOCC4)c4ccccc4c3nn2)cc1
4,174 to 176,COc1ccc(-c2ccc(C(=O)Nc3ccc4cc(CN5CCCC5)cnc4c3C)cc2F)cc1
5,150 to 151,N#CC1Sc2ccccc2N1C(=O)c1ccc(F)cc1 (centres undefined)
6,112 to 118,CC(C)(C)n1ncc(OCc2ccc(OCC(F)(F)C(F)F)nc2)c(Cl)c1=O
7,166 to 168,CC(C)(C)OC(=O)N1CCCCc2ccc(Cl)nc21
8,182 to 185,Cc1ccc(CC(=S)N2CCOCC2)cc1
9,186,COCC(Cl)c1nc2c(C(F)(F)F)cccc2c(O)c1C(=O)Nc1nccs1 (centres undefined)
10,285 to 287,O=C(O)c1ccc2nc3n(c(=O)c2c1)CCC3=Cc1ccccc1
11,196 to 197,Cc1[nH]c2ccccc2c1C(=O)CCn1ccnc1
12,122 to 124,C=CCNc1nc(SC)nc2cc(OC)c(OC)cc12
13,186 to 188,CCN1CCN(C(=O)c2ccc(-c3[nH]nc4c3C(=O)c3c(NC(=O)NN5CCOCC5)cccc3-4)s2)CC1
14,181 to 183,Cc1cccc2c(=O)[nH]c(C3CCC(N(C)C)CC3)nc12 (centres undefined)
15,136 to 138,CC(C)(C)OC(=O)N1C(=O)O[C@@H](c2cccc(Cl)c2)[C@H]1Cc1ccc(CC(F)(F)C(F)(F)F)cc1 (racemic)
16,200,O=C(OCc1ccccc1)c1ccc2cc(-c3ccc(CC(O)CO)c(C45CC6CC(CC(C6)C4)C5)c3)ccc2c1 (centres undefined)
17,100 to 101,CC(C)(C)C(=O)c1ccc(C(=O)NC(=O)c2ccc(F)cc2)cc1
18,> 300,Oc1ccc(-c2nc3ccc(O)cc3o2)cc1
19,194,NC(=O)NC[C@@H]1CCCc2cc(S(=O)(=O)c3cccc(F)c3)cc(F)c21
20,149 to 151,O=C(O)c1cc(C(F)(F)F)ccc1O
21,246 to 248,CCn1c(=O)c2c(N)n[nH]c2n(CC)c1=O
22,155 to 157,O=C(c1ccccc1O)N1CC2CCC(C1)O2
23,139 to 140,CN(C)c1ccc(/C=C/c2ccc(F)cc2F)cc1
24,146 to 147,OCc1cn(-c2ccc(Cl)c(Cl)c2)cn1

row,melting point [°C],SMILES
1,154 to 157,CCCC(=O)Nc1cc2c(s1)CCN(C(C(=O)C1CC1)c1ccccc1F)C2 (centres undefined)
2,191,COC(=O)c1c(C(=O)O)n(-c2ccc(OC(C)C)cc2)c2ccc(Oc3ccc(C(F)(F)F)cc3)cc12
3,150 to 154,COc1ccccc1NC(=O)Nc1nc(Nc2ccccc2-c2ccccc2)nc(N2CCCCC2C(=O)O)n1 (centres undefined)
4,185 to 187,Cc1ccc(CS(=O)c2nc3cc4c(cc3[nH]2)OCO4)nc1 (centres undefined)
5,56 to 58,COc1cc(CO)c(N)c(OC)c1OC
6,170 to 171,Cc1cccn2c(=O)c(C(=O)NC3CCCC3)cnc12
7,137 to 139,CCCCN(Cc1ccc(-c2ccccc2C#N)cc1)C(=O)Cc1ccccc1C(=O)O
8,134 to 136,NC1(C2CCCC2=O)OCCO1 (centres undefined)
9,74 to 76,CC(C)=CCCC(C)=CCS(=O)c1ccc2ccccc2c1 (centres undefined)
10,113 to 117,O=C(O)c1cc(Oc2cc(F)c(C(F)(F)F)c(Cl)c2)ccc1Br
11,87 to 88,O=C1CC(CSc2nc3ccccc3s2)C(=O)O1 (centres undefined)
12,70,C=C(C(=O)OC(C)(C)C)C(O)c1ccc(C(=O)OC)cc1 (centres undefined)
13,97,O=[N+]([O-])c1ncc(Cl)cc1O
14,187 to 188,CC(C)n1c(C=O)c(-c2ccc(F)cc2)c(-c2ccccc2)c1C(N)=O
15,> 114,Cc1nc(C)c(Cl)c(NCc2ccc(Oc3ccc4ncc([N+](=O)[O-])n4n3)c(O)c2)n1
16,85 to 88,CO/C=C(/C(=O)OC)c1ccccc1CCl
17,83.5,O=c1cc(COC2CCCCO2)occ1OCc1ccc(CBr)cc1 (centres undefined)
18,88 to 90,COC(=O)c1cccc(-c2ccccc2[N+](=O)[O-])c1
19,92,COc1ccc2c(c1)OC(C#N)=CO2
20,47.1 to 48.4,CCOC(=O)CCCOc1cccc2cc(C(C)=O)oc12
21,228 to 229,COc1ccc2c(c1)CC(C(N)=O)N2 (centres undefined)
22,174 to 175,Cc1ccccc1P(=O)(O)c1ccccc1C
23,155 to 160,O=C1C(=Cc2ccccc2)CS(=O)CC1=Cc1ccccc1 (centres undefined)

row,SMILES,melting point [°C]
1,Cc1cc(C)c2cc(C3CCNCC3)sc2c1,83 to 88
2,NC(Cc1ccccc1)c1ccc(Cl)cc1 (centres undefined),35 to 36
3,CCCCC1(N(C)C)CCC2(CC1)c1[nH]c3ccccc3c1CCN2C(=O)NCC (centres undefined),182 to 184
4,CN1C(=O)[C@H](NC(=O)CCc2ccccc2)N=C(c2ccccc2)c2ccccc21,179
5,O=C(Nc1nc(C(=O)NC2CN3CCC2CC3)cs1)c1ccc(OCc2ccccc2)cc1 (centres undefined),196
6,CCC1CC2C3CCC4=CC(=O)CCC4C3CCC2(C)C1OC(=O)CCl (centres undefined),135 to 136
7,N#Cc1nn(-c2c(Cl)cc(C(F)(F)F)cc2Cl)c(Br)c1[N+](=O)[O-],147 to 150
8,COc1ccc(N2C(=O)CCNc3ccc(Cl)cc32)cc1,198 to 199
9,CCOC(=O)c1ncn2c1CN(Cc1ccc(OC)cc1OC)C(=O)c1c(Cl)cccc1-2,129 to 130
